According to patent US20250353873A1, “COMPOUNDS AND METHODS FOR MODULATING APOE EXPRESSION” (Ionis Pharmaceuticals, Inc., priority 2024, published 2025):
Strand notation (5' to 3'): a small letter for the sugar, then the base; units joined by * are phosphorothioate-linked, units joined directly phosphodiester-linked; [ ] holds rarer units or linkages, { } end groups; capitals alone tell only the bases. [ms] = mesyl phosphoramidate linkage; e = 2'-O-(2-methoxyethyl) (MOE); k = constrained ethyl (cEt); [5mC] = 5-methylcytosine; d = 2'-deoxy (DNA)

Legend:
human APOE RNA [1] = experiment: Dose-dependent inhibition of human APOE RNA in HepG2 cells, electroporation, 24 hours (Example 6); type: cell-based
Outline: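 IC50 derived from APOE RNA levels, given as percent of untreated control after GAPDH normalization (probe sets RTS3073 and RTS104). Oligonucleotides were delivered at multiple concentrations by electroporation into HepG2 cells seeded at 50,000 per well.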

human APOE RNA [2] = experiment: Activity in APOE C57BL/6NTac-Apoeem7250 knock-in mice, single ICV bolus, 4 weeks (Example 10); type: in vivo; details: C57BL/6NTac-Apoeem7250 knock-in mice, single ICV bolus 300 μg, 4 weeks (Table 22)
Experimental: (§1) Modified oligonucleotides described above were tested in the APOE C57BL/6NTac-Apoeem7250 knock-in mouse model described above.
APOE C57BL/6NTac-Apoeem7250 knock-in mice were divided into groups of 2-4 mice each. Each mouse received a single ICV bolus of 300 μg of modified oligonucleotide. A group of 3-4 mice received a single ICV bolus with PBS as a negative control.
(§2) Four weeks post treatment, mice were sacrificed and RNA was extracted from cortical brain tissue and spinal cord for quantitative real-time RT-PCR analysis of RNA expression of APOE using human primer probe set RTS3073 (described herein above). APOE RNA levels were normalized to mouse Ppia. Mouse Ppia was amplified using primer probe set m_cyclo24 (described herein above). Results are presented as percent human APOE RNA relative to the amount of human APOE RNA in PBS treated animals, (% control). Each experiment is identified in separate tables below.

human APOE RNA [3] = experiment: Activity in APOE C57BL/6NTac-Apoeem7250 knock-in mice, single ICV bolus, 16 weeks (Example 12); type: in vivo; details: single ICV bolus 300 μg, 16 weeks post treatment, normalized to mouse Ppia
Outline: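 A single 300 μg intracerebroventricular dose was given, with PBS-treated mice as reference; cortical and spinal cord tissue was taken 16 weeks later. RT-qPCR quantified human APOE RNA, Ppia-normalized, expressed relative to PBS animals (% control).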

human APOE RNA [4] = experiment: Activity in APOE C57BL/6NTac-Apoeem7250 knock-in mice, single ICV bolus, 20 weeks (Example 13); type: in vivo; details: single ICV bolus 300 μg, 20 weeks post treatment, normalized to mouse Ppia
Experimental: as §1
APOE C57BL/6NTac-Apoeem7250 knock-in mice were divided into groups of 4 mice each. Each mouse received a single ICV bolus of 300 μg of modified oligonucleotide. A group of 2-4 mice received a single ICV bolus with PBS as a negative control.
as §2, with “Twenty” for “Four”

Row | Substance | IC50 (human APOE RNA [1]) | APOE RNA (% UTC) (human APOE RNA [1]; 5 nM) | APOE RNA (% UTC) (human APOE RNA [1]; 13 nM) | APOE RNA (% UTC) (human APOE RNA [1]; 33 nM) | APOE RNA (% UTC) (human APOE RNA [1]; 82 nM) | APOE RNA (% UTC) (human APOE RNA [1]; 205 nM) | APOE RNA (% UTC) (human APOE RNA [1]; 512 nM) | APOE RNA (% UTC) (human APOE RNA [1]; 1,280 nM) | APOE RNA (% UTC) (human APOE RNA [1]; 3,200 nM) | APOE RNA (% UTC) (human APOE RNA [1]; 8,000 nM) | APOE RNA (% UTC) (human APOE RNA [1]; 20,000 nM) | APOE RNA (% control) Cortex (human APOE RNA [2]) | APOE RNA (% control) Spinal Cord (human APOE RNA [2]) | APOE RNA (% control) Cortex (human APOE RNA [3]) | APOE RNA (% control) Spinal Cord (human APOE RNA [3]) | APOE RNA (% control) Cortex (human APOE RNA [4]) | APOE RNA (% control) Spinal Cord (human APOE RNA [4])
1 | 1736514 (e[5mC]*eTeT*eG*kG*kT*dG[ms]dA[ms]dA[ms]dT*d[5mC]*dT*dT*dT*dA[ms]dT*eT*eA*eA*eA; antisense) [Compound 1736514] | 670 nM | 121 % UTC | 123 % UTC | 96 % UTC | 77 % UTC | 80 % UTC | 46 % UTC | 33 % UTC | 25 % UTC | 23 % UTC | 6 % UTC | 28 % control | 54 % control | 39 % control | 16 % control |  | 
2 | 1736529 (e[5mC]*eT*eT*eG*eG*eTdG[ms]dA[ms]dA[ms]dT*d[5mC]*dT*dT*dT*dA[ms]dT*kT*kA*eA*eA; antisense) [Compound 1736529] | 1120 nM | 92 % UTC | 102 % UTC | 92 % UTC | 115 % UTC | 75 % UTC | 56 % UTC | 45 % UTC | 29 % UTC | 13 % UTC | 30 % UTC | 51 % control | 46 % control | 60 % control | 28 % control |  | 
3 | 1736531 (e[5mC]*eT*eT*eG*eG*kTdG[ms]dA[ms]dA[ms]dT*d[5mC]*dT*dT*dT*dA[ms]dT*eT*eA*eA*eA; antisense) [Compound 1736531] | 940 nM | 97 % UTC | 91 % UTC | 89 % UTC | 86 % UTC | 77 % UTC | 53 % UTC | 49 % UTC | 33 % UTC | 12 % UTC | 20 % UTC | 42 % control | 52 % control | 54 % control | 74 % control |  | 
4 | 1736532 (e[5mC]*eT*eT*eG*kG*kTdG[ms]dA[ms]dA[ms]dT*d[5mC]*dT*dT*dT*dA[ms]dT*eT*eA*eA*eA; antisense) [Compound 1736532] | 280 nM | 81 % UTC | 85 % UTC | 74 % UTC | 71 % UTC | 54 % UTC | 41 % UTC | 32 % UTC | 17 % UTC | 23 % UTC | 5 % UTC | 30 % control | 38 % control | 34 % control | 45 % control |  | 
5 | 1736533 (e[5mC]*eT*eT*eG*eGeT*dG[ms]dA[ms]dA[ms]dT*d[5mC]*dT*dT*dT*dA[ms]dT*kT*eA*eA*eA; antisense) [Compound 1736533] | 390 nM | 83 % UTC | 83 % UTC | 78 % UTC | 74 % UTC | 55 % UTC | 50 % UTC | 38 % UTC | 28 % UTC | 13 % UTC | 5 % UTC | 34 % control | 54 % control | 57 % control | 49 % control |  | 
6 | 1736534 (e[5mC]*eT*eT*eG*eGeT*dG[ms]dA[ms]dA[ms]dT*d[5mC]*dT*dT*dT*dA[ms]dT*kT*kA*eA*eA; antisense) [Compound 1736534] | 890 nM | 99 % UTC | 110 % UTC | 93 % UTC | 103 % UTC | 65 % UTC | 50 % UTC | 45 % UTC | 24 % UTC | 19 % UTC | 25 % UTC | 31 % control | 55 % control | 46 % control | 34 % control |  | 
7 | 1736535 (e[5mC]*eT*eT*eG*eGkT*dG[ms]dA[ms]dA[ms]dT*d[5mC]*dT*dT*dT*dA[ms]dT*eT*eA*eA*eA; antisense) [Compound 1736535] | 1660 nM | 90 % UTC | 96 % UTC | 99 % UTC | 93 % UTC | 67 % UTC | 69 % UTC | 53 % UTC | 24 % UTC | 51 % UTC | 13 % UTC | 39 % control | 63 % control | 47 % control | 26 % control |  | 
8 | 1736536 (e[5mC]*eT*eT*eG*kGkT*dG[ms]dA[ms]dA[ms]dT*d[5mC]*dT*dT*dT*dA[ms]dT*eT*eA*eA*eA; antisense) [Compound 1736536] | 620 nM | 97 % UTC | 102 % UTC | 79 % UTC | 79 % UTC | 63 % UTC | 58 % UTC | 43 % UTC | 25 % UTC | 9 % UTC | 6 % UTC | 31 % control | 53 % control | 36 % control | 31 % control |  | 
9 | 1757583 (eT*eTeGeGeT*dG*dA*dA*dT*d[5mC]*dT*dT*dT*dA*dT*kTeAeA*eA*e[5mC]; antisense) [Compound 1757583] |  |  |  |  |  |  |  |  |  |  |  |  |  |  |  | 97 % control | 100 % control
10 | 1757584 (eT*eTeGeGeT*dG*dA*dA*dT*d[5mC]*dT*dT*dT*dA*dT*kTkAeA*eA*e[5mC]; antisense) [Compound 1757584] |  |  |  |  |  |  |  |  |  |  |  |  |  |  |  | 92 % control | 95 % control
11 | 1779701 (e[5mC]*eTeT*kG*kG*dT[ms]dG[ms]dA[ms]dA[ms]dT*d[5mC]*dT*dT*dT*dA[ms]dT*eT*eA*eA*eA; antisense) [Compound 1779701] |  |  |  |  |  |  |  |  |  |  |  |  |  |  |  | 56 % control | 24 % control
12 | 1779970 (e[5mC]*eTeTkG*kG*eT*dG[ms]dA[ms]dA*dT*d[5mC]*dT*dT*dT*dA*dT*eT*eA*eA*eA; antisense) [Compound 1779970] |  |  |  |  |  |  |  |  |  |  |  |  |  |  |  | 63 % control | 35 % control
